Reference: publication PMC13289212, “HIVIL: A human in vitro inflammatory liver model recapitulates immune-associated drug effects with high predictivity” (NAM journal, 2025)
Where two headings read alike, the source gives them in different places.

What was measured:
IL-6 [1] = tested on: IL-6; set-up: method as in Steuerwald et al. 2013; Mahdy et al. 2002; Kang et al. 2001; details: ref Steuerwald et al. 2013; Mahdy et al. 2002; Kang et al. 2001; cited from earlier work
[2] = binary classification by human hepatotoxicity; ref Thakkar et al. 2020; cited from earlier work
[3] = FDA-labeling information; ref Chen et al. 2016; cited from earlier work
IL-6 [4] = details: 858.6 μM, 1 μg/mL of LPS; ref Li et al. 2020; cited from earlier work
IL-6 [5] = test: IL-6 ELISA in HIVIL (iKCs co-cultured with iHeps, LPS, 48 hr); assay type: cell-based, human; details: HIVIL; for IC50: Homo sapiens, LPS, 48 hr
Description: (§1) Human iPSC cell line iPS (IMR90)-4 was purchased from WiCell Research Institute (Madison, WI), and maintained with a feeder-free method according to the instruction from […] Technologies (Vancouver, BC, Canada). The protocol of differentiation towards iKCs and iHeps as described previously with slight modification ([Tasnim et al., 2019]; [Cai et al., 2012]), respectively. […] More details are provided in Supplementary Methods. After differentiation, iKCs was harvested using 0.05 % trypsin-EDTA (Gibco, Waltham, Massachusetts, USA), while iHeps were dissociated with TrypLE^TM (Gibco). iHep suspension was further filtered through a 40 µm cell strainer to remove extracellular matrix clumps. Cell suspension was centrifuged at 1000 rpm for 5 min. For co-culture set up, tissue culture plates were coated with Rat tail collagen I (Gibco) diluted 100-fold in 0.02 N acetic acid, and incubated at 37 °C for 1 h and washed 3 times with PBS. According to the protocol optimized by [Tasnim et al. (2019)], iKCs was firstly seeded at a density of 14,000 per well on 96-well plate with Advanced DMEM (plus supplements) containing 5 % FBS. On the following day, iHeps were added at a density of 35,000 per well in Williams’ Medium E (plus supplements) (iHep: iKCs ratio = 2.5: 1). This reflects the physiological ratio of these cells in vivo under inflammatory conditions ([Tasnim et al., 2021]). Fresh media containing drugs was applied to co-cultures the next day. 50,000 cells were seeded to establish iHeps monoculture. THP-1 cells were kindly obtained from Dr. Eliza Fong and cultured as described by [Zeng et al. (2015)]. Details provided in Supplementary Methods.
(§2) Stock solutions of drugs were prepared in dimethyl sulfoxide (DMSO) and dissolved in medium prior to use. […] For these two drugs, the highest DMSO concentration was 1 %. Supernatant was collected at 48 hr for measurement of cytokines, and remaining cells were subjected to viability assay prior to lysis for RNA extraction.
(§3) Enzyme-linked immunosorbent assay (ELISA) for measurement of cytokines: Interleukin-6 (IL-6), interleukin-10 (IL-10) and tumor necrosis factor alpha (TNFα) levels in the media were measured using the corresponding human-based ELISA kits (Abcam, Cambridge, United Kingdom) according to manufacturer’s instructions. The cytokine production from dosed cells was normalized with the viability value from the same well. The normalized cytokine level upon drug treatments was further presented as percentage of DMSO+LPS. […] This normalization approach has been used in previous studies (Rose et al. 2016).

IL-6 [6] = test: IL-6 response in HIVIL using THP-1 macrophages co-cultured with iHeps; assay type: cell-based, human; details: HIVIL with THP-1 instead of iKCs, result in words
Description: Human iPSC cell line iPS (IMR90)-4 was purchased from WiCell Research Institute (Madison, WI), and maintained with a feeder-free method according to the instruction from […] Technologies (Vancouver, BC, Canada). The protocol of differentiation towards iKCs and iHeps as described previously with slight modification ([Tasnim et al., 2019]; [Cai et al., 2012]), respectively. The re-optimized protocol to generate iKCs is discussed in Results section. More details are provided in Supplementary Methods. After differentiation, iKCs was harvested using 0.05 % trypsin-EDTA (Gibco, Waltham, Massachusetts, USA), while iHeps were dissociated with TrypLE^TM (Gibco). iHep suspension was further filtered through a 40 µm cell strainer to remove extracellular matrix clumps. Cell suspension was centrifuged at 1000 rpm for 5 min. For co-culture set up, tissue culture plates were coated with Rat tail collagen I (Gibco) diluted 100-fold in 0.02 N acetic acid, and incubated at 37 °C for 1 h and washed 3 times with PBS. According to the protocol optimized by [Tasnim et al. (2019)], iKCs was firstly seeded at a density of 14,000 per well on 96-well plate with Advanced DMEM (plus supplements) containing 5 % FBS. On the following day, iHeps were added at a density of 35,000 per well in Williams’ Medium E (plus supplements) (iHep: iKCs ratio = 2.5: 1). This reflects the physiological ratio of these cells in vivo under inflammatory conditions ([Tasnim et al., 2021]). Fresh media containing drugs was applied to co-cultures the next day. 50,000 cells were seeded to establish iHeps monoculture. THP-1 cells were kindly obtained from Dr. Eliza Fong and cultured as described by [Zeng et al. (2015)]. Details provided in Supplementary Methods.
THP-1 maintenance and differentiation: THP-1 monocytic lineage was maintained in RPMI 1640 with 10% FBS. For differentiation to macrophages, suspension cells were collected and subjected to 2-day phorbol 12-myristate 13-acetate (PMA) treatment (50 ng/ml), followed by a 1-day PMA-free medium resting. THP-1 macrophages were trypsinzed and used for co-culture as described in Material and methods.
(§4) Enzyme-linked immunosorbent assay (ELISA) for measurement of cytokines: Interleukin-6 (IL-6), interleukin-10 (IL-10) and tumor necrosis factor alpha (TNFα) levels in the media were measured using the corresponding human-based ELISA kits (Abcam, Cambridge, United Kingdom) according to manufacturer’s instructions. The cytokine production from dosed cells was normalized with the viability value from the same well. The normalized cytokine level upon drug treatments was further presented as percentage of DMSO+LPS. Normalization to viability per well ensures that any changes in cytokines are not due to changes in cell numbers upon drug treatment and normalization to DMSO+LPS allows better comparison between different batches of experiments. This normalization approach has been used in previous studies (Rose et al. 2016).

IL-6 [7] = tested on: IL-6; set-up: method as in ref Hassan et al. 2016; Giustarini et al. 2019; Higuchi et al. 2012; Dik et al. 2018; details: ref Hassan et al. 2016; Giustarini et al. 2019; Higuchi et al. 2012; Dik et al. 2018; cited from earlier work
[8] = Cammett et al. 2009, Mendes et al. 2014, cited from earlier work
[9] = ref Ho et al. 2015; Kaplowitz 2005; Verma and Kaplowitz 2009; cited from earlier work
TNFα [10] = details: ref Shaw et al. 2010; Zou et al. 2009; Bekker et al. 2012; Gandhi et al. 2013; Heidari et al. 2019; cited from earlier work
TNFα [11] = test: TNFα ELISA in HIVIL (iKCs co-cultured with iHeps, LPS, 48 hr); assay type: cell-based, human; details: for TNFα induction: result in words
Description: as §1, §2, §3

IL-6 [12] = test: IL-6 production of iKC mono-culture; assay type: cell-based, human; details: result in words
Procedure: as §4

[13] = tested on: HIVIL (iKCs co-cultured with iHeps); test: AlamarBlue cell viability in HIVIL; details: Homo sapiens, 48 h, read-out: IC50: viability
Procedure: as §2

IL-6 [14] = test: Optimization of stimulator and duration: IL-6 production; assay type: cell-based, human
Description: In order to evaluate the time-dependent inflammatory responses, we measured interleukin-6 (IL-6) production within 48 hr post-LPS treatment.

cytokines = tested on: cytokines; set-up: method as in ref Ganey et al. 2004; Honarmand et al. 2012; Manna and Aggarwal 1999; Yao et al. 2004; details: ref Ganey et al. 2004; Honarmand et al. 2012; Manna and Aggarwal 1999; Yao et al. 2004; cited from earlier work
[15] = ref in each cell: Ademisoye et al. 2018, Xu et al. 2008, Agabeyoglu and Incecayir 2009, Rojanasthien et al. 2007, Reunanen et al. 1992, Li et al. 2002, Hong-mei et al. 2013, Bareggi et al. 1987, Jiang et al. 2008

Procedure for iKCs mono-culture: Cell viability assays: Cell viability was examined with AlamarBlue^TM cell viability assay (Thermo Fisher Scientific Inc.) according to manufacturer’s instructions. Briefly, cells were exposed to AlamarBlue^TM working solution, which was diluted 10-fold using PBS containing 2 mg/mL of glucose, for 1 hour. Color change in the solution was measured using fluorescence (Ex: 530nm, Em: 590nm) in Tecan Microplate Reader M1000 PRO. The viability of dosed cells was presented as percentage of the corresponding vehicle control.

Row | Compound | Reported human responses: IL-6 (IL-6 [1]) | DILIst [2] | DILIrank [3] | drug-specific IL-6 response with THP-1 macrophages (IL-6 [6]) | Cmax [8, 15] [µM] | group by drug-dependent IL-6 production (IL-6 [5]) | other results
1 | NNC(=O)c1ccncc1 [INH, isoniazid] | IL-6↑ (Steuerwald et al. 2013) | 1 | most | failed to replicate IL-6 increases | – | – | changes in IL-6 levels (IL-6 [4]): did not show any changes; IL-6 induction (IL-6 [5]; all doses tested): at least 1.2 fold; Reported in-vivo (murine) responses: IL-6 (IL-6 [7]): IL-6↑ (Hassan et al. 2016)
2 | O=C1NC(=O)C(c2ccccc2)(c2ccccc2)N1 [PHT, phenytoin] | IL-6↑ (Steuerwald et al. 2013) | 1 | most | failed to replicate IL-6 increases | 15.4 | – | dose-dependent increase in IL-6 levels over baseline (IL-6 [5]): 1.5- to 2 fold
3 | NC(=O)N1c2ccccc2C=Cc2ccccc21 [CBZ, carbamazepine] | – | 1 | most | – | 25.3 | dose-dependent induction | increase in IL-6 (IL-6 [5]): 1.7 fold; Reported in-vivo (murine) responses: IL-6 (IL-6 [7]): IL-6↑(Higuchi et al. 2012)
4 | CCN(CC)Cc1cc(Nc2ccnc3cc(Cl)ccc23)ccc1O [AQ, amodiaquine] | IL-6↑ (Steuerwald et al. 2013) | 1 | – | failed to replicate IL-6 increases | 0.1 | – | IL-6 induction (IL-6 [5]; 10 μM): 1.47 fold
5 | NC(=O)c1cnccn1 [PZA, pyrazinamide] | – | 1 | less | – | 407 | no dose-dependent changes | Known immune-mediated effects [9]: ×
6 | CN(C/C=C/C#CC(C)(C)C)Cc1cccc2ccccc12 [TBF, terbinafine] | – | 1 | most | – | 3.4 | no dose-dependent changes | Known immune-mediated effects [9]: ×
7 | CCCc1cc(=O)[nH]c(=S)[nH]1 [PTU, propylthiouracil] | – | 1 | most | – | 17.6 | dose-dependent inhibition | Reported in-vivo (murine) responses: TNFα (TNFα [10]): TNFα↑ (Heidari et al. 2019); IC50 (IL-6 [5]): 259 µM; Cmax ([8]; ref in each cell: Xu et al. 2008): 17.6 µM; TNFα induction (TNFα [11]): all concentrations
8 | CC1=C(CC(=O)O)c2cc(F)ccc2/C1=C\c1ccc([S+](C)[O-])cc1 (stereo not drawn) [SLD, sulindac] | mechanistic IL-6↓ (Kang et al. 2001) | 1 | most | – | – | dose-dependent inhibition | toxicity to iKCs mono-culture compared to iHeps mono-culture and HIVIL (iKCs mono-culture): substantially higher toxicity; Reported in-vivo (murine) responses: TNFα (TNFα [10]): TNFα↑ (Zou et al. 2009); IL-6 / cytokine production in iKC mono-culture (IL-6 [12]): abolished; reduction of IL-6 (IL-6 [5]): 50%; IC50 (IL-6 [5]): 381 µM; IC50 [13]: 2060 µM; dose at which TNFα induction was observed (TNFα [11]): < 200 µM
9 | penicillin | – | 1 | less | – | – | no dose-dependent changes | Known immune-mediated effects [9]: ×
10 | Nc1nnc(-c2cccc(Cl)c2Cl)c(N)n1 [LTG, lamotrigine] | IL-6↑(Steuerwald et al. 2013) | 1 | most | failed to replicate IL-6 increases | 9.8 | – | dose-dependent increase in IL-6 levels over baseline (IL-6 [5]): 1.5- to 2 fold
11 | lipopolysaccharide [LPS] | – | – | – | – | – | – | IL-6 production compared to vehicle control (IL-6 [14]; 24 hr post-LPS treatment): 10.15 fold; IL-6 production compared to vehicle control (IL-6 [14]; 48 hr post-LPS treatment): 4.70 fold
12 | Cc1oncc1C(=O)Nc1ccc(C(F)(F)F)cc1 [LFM, leflunomide] | – | 1 | most | – | 24.8 | dose-dependent induction | Reported in-vivo (murine) responses: cytokines (cytokines): cytokines↓ via NF-kB (Manna and Aggarwal 1999; Yao et al. 2004); increase in IL-6 (IL-6 [5]): 3.1 fold
13 | Cc1ccnc2c1NC(=O)c1cccnc1N2C1CC1 [NVP, nevirapine] | – | 1 | most | – | – | dose-dependent inhibition | Reported in-vivo (murine) responses: TNFα (TNFα [10]): TNFα↑ (Bekker et al. 2012); IC50 (IL-6 [5]): 1070 µM; IC50 [13]: 2610 µM; TNFα induction (TNFα [11]): all concentrations
